Assay results from patent US4293489A, “Derivatives of A-30912A nucleus” (Eli Lilly and Company, priority 1980, dated 1981).
Where two headings read alike, the source gives them in different places. Starred links: 1 amine or outer side, 2 acyl side, 3 side chain; linkers in the order of their positions; H or OH if unused. Positions of bridges follow the written chain, without caps; N, C: chain ends. Non-standard residues stand in square brackets, D forms with d. Residues, ends and D or L forms follow the SMILES beside them. *: point of attachment. Orn(4R-OH,5R-OH) = O=C([C@H](C[C@@H](O)[C@@H](O)N[*:3])N[*:1])[*:2]; hTyr(3S-OH,4S-OH) = N[C@H](C(=O)O)[C@H](O)[C@@H](O)c1ccc(O)cc1; Pro(3S-OH,4S-Me) = C[C@H]1CN[C@H](C(=O)O)[C@H]1O; Benzoyl(4-octyloxy) = CCCCCCCCOc1ccc(C(=O)*)cc1; X22 = CCCCCCCCCCCCOc1ccc(CCC(=O)*)cc1; X18 = CCCCCCCCCCCCOc1ccc(CC(=O)*)cc1; X16 = CCCCCCCCOc1ccc(C=CC(=O)*)cc1; X11 = CCCCCCCCOc1ccc(OCC(=O)*)cc1; X21 = CCCCCCCCOc1ccc(CCC(=O)*)cc1; Hyp = O=C(O)[C@@H]1C[C@@H](O)CN1; X15 = CCCCCCCCOc1cccc(CC(=O)*)c1; X19 = CCCCCCOc1ccc(C=CC(=O)*)cc1

Assays:
Candida albicans A-26 [1] = assay: Agar plate disc diffusion test, MIC per disc; type: cell-based; conditions: 0.1M sodium borate, pH 7.5, 24 hours, 30° C.
Protocol: (§1) Tables 10 and 11 give the results of the testing in vitro of the compounds of Examples 3 and 4 by agar-plate disc-diffusion methods. In Table 10 activity is measured by the size (diameter in mm) of the observed zone of inhibition of the microorganism produced by the test compound. In Table 11, activity is measured by the minimal inhibitory concentration (MIC) of the substance (μg/disc) required to inhibit growth of the test organism. Table 12 gives the results of the testing in vitro of the p-(n-octyloxy)benzoyl derivative of A30912A nucleus [Formula III, R^1 is p-(n-octyloxy)benzoyl] against five strains of Candida albicans by the agar dilution method. In Table 12 activity is measured by the minimal inhibitory concentration (MIC) of the substance (μg/ml) required to inhibit the test organism.
(§2) ^(a) Compounds were suspended in 0.1M sodium borate solution, pH 7.5.
(§3) The compounds were tested at 20 μg/disc at top level and at twofold
(§4) dilutions until end points were reached. Incubation: 24 hours; 30°

[2] = test system: Trychophyton mentagrophyes #6; assay: Agar plate disc diffusion test, MIC per disc; type: cell-based, Trichophyton mentagrophytes; conditions: 0.1M sodium borate, pH 7.5, 24 hours, 30° C., * measurable zones with regrowth of organism around disc
Protocol: as §1, §2, §3, §4
*Measurable zones of inhibition with regrowth of organism around disc.

Candida albicans A-26 [3] = assay: Therapeutic activity against Candida albicans A-26 infection in X-irradiated mice, lowest active dose; type: in vivo; conditions: A26, light or radiation study, sc
Protocol: The results of in vivo tests to evaluate the effectiveness of the compounds of Examples 3 and 4 against an infection caused by Candida albicans A-26 in mice are given in Table 13, where activity is measured by the ED50 value (the dose in mg/kg. required to cure 50% of the test animals). In a separate test, the results of which are also summarized in Table 13, activity is indicated by the lowest dose at which a significant anti-fungal effect is observed. In this test, groups of male albino mice (specific pathogen free), weighing 18 to 20 grams, are infected intravenously with Candida albicans A-26. The animals are X-irradiated 24 hours prior to infection at about 50 roentgens per minute for 8 minutes (400 total dose) to reduce immune responses to the infecting organism. At 0, 4, and 24 hours post infection each group of mice is given graded doses subcutaneously of the test compound as a suspension in 33% polyethylene glycol (PEG)-water. The day of death for each animal is recorded.
*Dosage Schedules: A. = 40, 20, 15 and 10 mg/kg; Dosages given 0, 4, and
24 hours post injection as suspension of test compound in 30% PEGH2
O. Number of mice receiving test compounds at each dosage level: 6 mice
per group. Number of mice in control (untreated) group: 10 mice per group

| Compound | MIC (Candida albicans A-26 [1]) [μg/disc] | MIC [2] [μg/disc] | minimal effective dose (Candida albicans A-26 [3]; X-irradiated mice, subcutaneous at 0, 4 and 24 hours post infection, survival, read-out: Lowest Active Dose) [mg/kg] | minimal effective dose (Candida albicans A-26 [3]; read-out: Lowest Active Dose, X-irradiated mice, subcutaneous at 0, 4 and 24 hours post infection, survival) [mg/kg] |
| --- | --- | --- | --- | --- |
| CCCCCCCCOc1ccc(CCC(=O)N[C@H]2C[C@@H](O)[C@@H](O)NC(=O)[C@@H]3[C@@H](O)[C@@H](C)CN3C(=O)[C@H]([C@@H](C)O)NC(=O)[C@H]([C@H](O)[C@@H](O)c3ccc(O)cc3)NC(=O)[C@@H]3C[C@@H](O)CN3C(=O)[C@H]([C@@H](C)O)NC2=O)cc1 [drawing 136] (X21-[Orn(4R-OH,5R-OH)]T[Hyp][hTyr(3S-OH,4S-OH)]T[Pro(3S-OH,4S-Me)]; lactam 1-C) | 0.078 | 0.156 | – | – |
| CCCCCCCCCCCCOc1ccc(CCC(=O)N[C@H]2C[C@@H](O)[C@@H](O)NC(=O)[C@@H]3[C@@H](O)[C@@H](C)CN3C(=O)[C@H]([C@@H](C)O)NC(=O)[C@H]([C@H](O)[C@@H](O)c3ccc(O)cc3)NC(=O)[C@@H]3C[C@@H](O)CN3C(=O)[C@H]([C@@H](C)O)NC2=O)cc1 [drawing 137] (X22-[Orn(4R-OH,5R-OH)]T[Hyp][hTyr(3S-OH,4S-OH)]T[Pro(3S-OH,4S-Me)]; lactam 1-C) | 0.312 | 0.156 | – | – |
| CCCCCCOc1ccc(C=CC(=O)N[C@H]2C[C@@H](O)[C@@H](O)NC(=O)[C@@H]3[C@@H](O)[C@@H](C)CN3C(=O)[C@H]([C@@H](C)O)NC(=O)[C@H]([C@H](O)[C@@H](O)c3ccc(O)cc3)NC(=O)[C@@H]3C[C@@H](O)CN3C(=O)[C@H]([C@@H](C)O)NC2=O)cc1 [drawing 139] (X19-[Orn(4R-OH,5R-OH)]T[Hyp][hTyr(3S-OH,4S-OH)]T[Pro(3S-OH,4S-Me)]; lactam 1-C) | 1.25 | 0.156 | – | – |
| CCCCCCCCOc1ccc(C=CC(=O)N[C@H]2C[C@@H](O)[C@@H](O)NC(=O)[C@@H]3[C@@H](O)[C@@H](C)CN3C(=O)[C@H]([C@@H](C)O)NC(=O)[C@H]([C@H](O)[C@@H](O)c3ccc(O)cc3)NC(=O)[C@@H]3C[C@@H](O)CN3C(=O)[C@H]([C@@H](C)O)NC2=O)cc1 [drawing 140] (X16-[Orn(4R-OH,5R-OH)]T[Hyp][hTyr(3S-OH,4S-OH)]T[Pro(3S-OH,4S-Me)]; lactam 1-C) | 0.156 | 0.156 | – | – |
| CCCCCCCCOc1cccc(CC(=O)N[C@H]2C[C@@H](O)[C@@H](O)NC(=O)[C@@H]3[C@@H](O)[C@@H](C)CN3C(=O)[C@H]([C@@H](C)O)NC(=O)[C@H]([C@H](O)[C@@H](O)c3ccc(O)cc3)NC(=O)[C@@H]3C[C@@H](O)CN3C(=O)[C@H]([C@@H](C)O)NC2=O)c1 [drawing 141] (X15-[Orn(4R-OH,5R-OH)]T[Hyp][hTyr(3S-OH,4S-OH)]T[Pro(3S-OH,4S-Me)]; lactam 1-C) | 5 | 80 | – | – |
| CCCCCCCCCCCCOc1ccc(CC(=O)N[C@H]2C[C@@H](O)[C@@H](O)NC(=O)[C@@H]3[C@@H](O)[C@@H](C)CN3C(=O)[C@H]([C@@H](C)O)NC(=O)[C@H]([C@H](O)[C@@H](O)c3ccc(O)cc3)NC(=O)[C@@H]3C[C@@H](O)CN3C(=O)[C@H]([C@@H](C)O)NC2=O)cc1 [drawing 142] (X18-[Orn(4R-OH,5R-OH)]T[Hyp][hTyr(3S-OH,4S-OH)]T[Pro(3S-OH,4S-Me)]; lactam 1-C) | 0.312 | 0.625 | – | – |
| CCCCCCCCOc1ccc(OCC(=O)N[C@H]2C[C@@H](O)[C@@H](O)NC(=O)[C@@H]3[C@@H](O)[C@@H](C)CN3C(=O)[C@H]([C@@H](C)O)NC(=O)[C@H]([C@H](O)[C@@H](O)c3ccc(O)cc3)NC(=O)[C@@H]3C[C@@H](O)CN3C(=O)[C@H]([C@@H](C)O)NC2=O)cc1 [drawing 145] (X11-[Orn(4R-OH,5R-OH)]T[Hyp][hTyr(3S-OH,4S-OH)]T[Pro(3S-OH,4S-Me)]; lactam 1-C) | 0.312 | 80 | – | – |
| CCCCCCCCOc1ccc(C(=O)N[C@H]2C[C@@H](O)[C@@H](O)NC(=O)[C@@H]3[C@@H](O)[C@@H](C)CN3C(=O)[C@H]([C@@H](C)O)NC(=O)[C@H]([C@H](O)[C@@H](O)c3ccc(O)cc3)NC(=O)[C@@H]3C[C@@H](O)CN3C(=O)[C@H]([C@@H](C)O)NC2=O)cc1 [drawing 151] ({Benzoyl(4-octyloxy)}-[Orn(4R-OH,5R-OH)]T[Hyp][hTyr(3S-OH,4S-OH)]T[Pro(3S-OH,4S-Me)]; lactam 1-C) | – | – | < 12.5 | 10 |
